The text below walks through data of patent US20090062401A1, “DECALINE-DERIVED COMPOUNDS AS […] ACTIVE AGENTS” (UNIVERSITAT DORTMUND, priority 2004, published 2009).

By pIC50 is commonly meant the IC50 on a negative log10 scale, so that one unit is a factor of ten.

The structures appear in SMILES notation. pIC50: −log10 of the molar value. Like-named read-outs stand apart in the source and are kept apart here.

One experiment deals with 11beta-HSD1 (Homo sapiens, UniProt P28845). Briefly: biochemical. Conditions: read-out: IC50 Target 11beta-HSD1. From the text: (§1) Assay protocols for Cdc25A, 11βHSD1, 11βHSD2, and AChE are described in detain in the publication of Koch M A, Wittenberg L O, Basu S, Jeyaraj D A, Gourzoulidou E, Reinecke K, Odermatt A, Waldmann H (Proc. Natl. Acad. Sci. U.S.A. 2004 Nov. 30; 101(48):16721-6) and in Koch M A et al., Proc. Natl. Acad. Sci. U.S.A. 2005 Nov. 29; 102 (48):17272-7.

In the next experiment the target is T1, 11beta-HSD2 (Homo sapiens, UniProt P80365).
T1 sequence (P80365 1-405): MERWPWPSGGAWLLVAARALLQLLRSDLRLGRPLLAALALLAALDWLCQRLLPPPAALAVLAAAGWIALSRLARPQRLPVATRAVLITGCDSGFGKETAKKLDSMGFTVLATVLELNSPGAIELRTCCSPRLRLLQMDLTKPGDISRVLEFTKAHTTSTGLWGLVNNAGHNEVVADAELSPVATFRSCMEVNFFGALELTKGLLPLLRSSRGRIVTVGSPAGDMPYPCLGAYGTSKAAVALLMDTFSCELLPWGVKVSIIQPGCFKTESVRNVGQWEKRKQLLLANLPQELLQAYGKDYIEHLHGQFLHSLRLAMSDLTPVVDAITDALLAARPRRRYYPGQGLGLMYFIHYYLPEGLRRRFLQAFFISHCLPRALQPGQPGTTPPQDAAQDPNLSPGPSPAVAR
The experiment can be described thus: 11beta-HSD2 inhibition. Type of experiment: biochemical. Conditions: read-out: IC50 Target 11beta-HSD2.
From the text: as §1

The next experiment has as its target VHR (Homo sapiens, UniProt P51452). Briefly: VHR phosphatase inhibition, general phosphatase assay using para-nitrophenylphosphate. Type of experiment: biochemical. Conditions: read-out: IC50 Target VHR. An excerpt: (§2) Assays protocols for the other enzymes mentioned herein (MtPTPA, PP1, VHR, PTP1B) are disclosed in Schweizer R A S, Atanasov, G A, Frey B M, and Odermatt A, Mol. Cell. Endocrinol. 2003, 212, 41-49 and Barratte, B., Meijer L., Galaktionov K. & Beach D, Anticancer Res. 1992, 12, 873-880. For determination of the phosphatase activity, a general phosphatase assay using para-nitrophenylphosphate was applied.

The target of another experiment is PP1. The experiment can be described thus: PP1 phosphatase inhibition, general phosphatase assay using para-nitrophenylphosphate. Format: biochemical. Conditions: read-out: IC50 Target PP1.
From the text: as §2

In the next experiment the target is MPTPA (Mycobacterium tuberculosis, UniProt P9WIA1). Briefly: MtPTPA phosphatase inhibition, general phosphatase assay using para-nitrophenylphosphate. Type of experiment: biochemical.
From the text: as §2

The next experiment has as its target T2, PTP1B (Homo sapiens, UniProt P18031).
T2 sequence (P18031 1-435): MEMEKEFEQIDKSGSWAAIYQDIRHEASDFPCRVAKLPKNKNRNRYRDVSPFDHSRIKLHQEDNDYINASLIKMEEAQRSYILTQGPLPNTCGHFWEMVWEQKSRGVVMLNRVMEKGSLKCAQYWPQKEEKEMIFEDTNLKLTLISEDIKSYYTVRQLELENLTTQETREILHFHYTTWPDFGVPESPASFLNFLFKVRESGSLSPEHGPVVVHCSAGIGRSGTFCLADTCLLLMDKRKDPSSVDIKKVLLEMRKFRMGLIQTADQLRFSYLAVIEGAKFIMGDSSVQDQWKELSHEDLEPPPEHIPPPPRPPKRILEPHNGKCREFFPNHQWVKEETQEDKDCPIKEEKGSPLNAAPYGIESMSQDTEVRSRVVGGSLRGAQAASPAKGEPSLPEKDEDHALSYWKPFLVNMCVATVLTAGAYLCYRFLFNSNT
The experiment can be described thus: PTP1B phosphatase inhibition, general phosphatase assay using para-nitrophenylphosphate. Particulars: read-out: IC50 Target PTP1B. Type of experiment: biochemical.
From the text: as §2

In a further experiment the target is T3, Cdc25A (Homo sapiens, UniProt P30304).
T3 sequence (P30304 1-524): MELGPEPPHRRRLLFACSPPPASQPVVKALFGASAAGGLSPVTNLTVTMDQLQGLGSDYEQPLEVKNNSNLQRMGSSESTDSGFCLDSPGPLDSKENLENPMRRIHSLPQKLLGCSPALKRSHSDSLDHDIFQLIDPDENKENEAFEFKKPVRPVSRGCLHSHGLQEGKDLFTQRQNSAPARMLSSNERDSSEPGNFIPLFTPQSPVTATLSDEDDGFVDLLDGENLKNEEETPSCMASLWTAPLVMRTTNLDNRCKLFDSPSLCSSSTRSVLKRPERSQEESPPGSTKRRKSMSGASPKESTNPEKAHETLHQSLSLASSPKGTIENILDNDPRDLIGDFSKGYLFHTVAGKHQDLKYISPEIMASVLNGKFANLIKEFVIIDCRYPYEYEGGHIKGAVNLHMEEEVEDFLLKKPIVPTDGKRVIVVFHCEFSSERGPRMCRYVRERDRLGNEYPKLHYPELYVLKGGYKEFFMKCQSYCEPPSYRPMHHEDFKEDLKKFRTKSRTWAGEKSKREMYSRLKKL
Briefly: Cdc25A phosphatase inhibition. Particulars: read-out: IC50 Target Cdc25A. Format: biochemical.
From the text: as §1

The next experiment deals with AChE (Homo sapiens, UniProt P22303). Briefly: Acetylcholinesterase inhibition. Format: biochemical.
From the text: as §1

Chain of AChE (P22303 32-614): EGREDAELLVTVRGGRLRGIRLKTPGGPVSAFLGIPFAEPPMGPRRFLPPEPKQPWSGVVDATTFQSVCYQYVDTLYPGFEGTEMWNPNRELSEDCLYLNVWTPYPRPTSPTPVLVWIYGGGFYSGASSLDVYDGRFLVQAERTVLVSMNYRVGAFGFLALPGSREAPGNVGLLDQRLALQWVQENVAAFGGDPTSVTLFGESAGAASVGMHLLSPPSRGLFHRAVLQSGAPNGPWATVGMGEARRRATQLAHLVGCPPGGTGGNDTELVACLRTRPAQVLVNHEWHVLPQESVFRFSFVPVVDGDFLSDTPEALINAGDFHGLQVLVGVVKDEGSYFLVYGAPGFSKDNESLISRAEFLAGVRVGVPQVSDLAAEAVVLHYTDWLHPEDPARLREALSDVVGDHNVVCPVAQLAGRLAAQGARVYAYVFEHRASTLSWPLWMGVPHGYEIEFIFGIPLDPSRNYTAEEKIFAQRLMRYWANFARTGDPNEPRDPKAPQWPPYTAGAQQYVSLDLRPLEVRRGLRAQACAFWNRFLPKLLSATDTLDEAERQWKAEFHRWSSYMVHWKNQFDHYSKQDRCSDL
Chain of 11beta-HSD1 (P28845 whole entry): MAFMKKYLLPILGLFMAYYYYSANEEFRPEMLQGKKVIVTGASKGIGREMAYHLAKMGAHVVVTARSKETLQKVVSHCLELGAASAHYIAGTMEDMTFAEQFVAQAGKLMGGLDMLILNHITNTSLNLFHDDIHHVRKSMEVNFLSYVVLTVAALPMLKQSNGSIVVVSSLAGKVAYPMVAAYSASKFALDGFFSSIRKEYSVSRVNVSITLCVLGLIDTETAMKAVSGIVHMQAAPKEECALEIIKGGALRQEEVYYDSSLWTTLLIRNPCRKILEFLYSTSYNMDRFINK
Chain of VHR (P51452 whole entry, species assumed): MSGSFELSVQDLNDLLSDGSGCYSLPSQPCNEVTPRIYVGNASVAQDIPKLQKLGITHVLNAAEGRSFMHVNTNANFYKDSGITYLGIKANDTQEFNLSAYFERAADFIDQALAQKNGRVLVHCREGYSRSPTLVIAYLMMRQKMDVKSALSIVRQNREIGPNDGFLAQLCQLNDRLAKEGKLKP
Chain of MPTPA (P9WIA1 whole entry): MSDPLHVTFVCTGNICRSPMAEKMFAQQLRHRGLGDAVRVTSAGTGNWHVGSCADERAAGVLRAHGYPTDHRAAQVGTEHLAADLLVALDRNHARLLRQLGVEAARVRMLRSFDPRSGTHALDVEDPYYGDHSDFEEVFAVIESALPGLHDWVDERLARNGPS

Consider `CCc1cc(OC)ccc1/C=C1\C[C@@]2(C)C(=C(C)C1=O)CCC[C@@H]2O` [Compound 15, (3E,4aS,5S)-3-(2-Ethyl-4-methoxybenzyliden)-4,4a,5,6,7,8-hexahydro-5-hydroxy-1,4a-dimethylnaphthalen-2(3H)-one], for which the pIC50 on 11beta-HSD1 was greater than 5.00; on 11beta-HSD2, 4.30 to 5.00.
In the case of `CC1=C2CC/C(=C\c3ccco3)C(=O)[C@@]2(C)CCC1O` (stereo partly drawn) [Compound 25, (2E,8aS)-2-[(Furan-2-yl)methylen]-3,4,6,7,8,8a-hexahydro-6-hydroxy-5,8a-dimethylnaphthalen-1(2H)-one], the pIC50 on VHR, on PP1 and on MPTPA (read-out: IC50 Target MPTPA) was 4.30 to 5.00 throughout.
Regarding `C/C=C/C=C1\C[C@@]2(C)C(=C(C)C1=O)CCC[C@@H]2O` [Compound 29, (3E,4aS,5S)-3-[(E)-But-2-enyliden]-4,4a,5,6,7,8-hexahydro-5-hydroxy-1,4a-dimethylnaphthalen-2(3H)-one], the pIC50 on PTP1B is greater than 5.00; on Cdc25A, 4.30 to 5.00; on 11beta-HSD1, greater than 5.00; on 11beta-HSD2, greater than 5.00; on AChE, greater than 5.00.
In the case of `CC(=O)Oc1ccc(/C=C2\C[C@@]3(C)C(=C(C)C2=O)CCC[C@@H]3O)cc1` [Compound 31, 4-{(1E)-[(4S,4aS)-1,2,3,4,4a,5-Hexahydro-4-hydroxy-4a,8-dimethyl-7-oxonaphthalen-6(7H)-yliden]methyl}phenylacetat], the negative-log IC50 (pIC50) at PTP1B is 4.30 to 5.00; on 11beta-HSD1 it was greater than 5.00; at 11beta-HSD2, 4.30 to 5.00; on AChE (read-out: IC50 Target AChE), greater than 5.00.
For `CCC/C=C1\C[C@@]2(C)C(=C(C)C1=O)CCC[C@@H]2O` [Compound 32, (3E,4aS,5S)-3-Butyliden-4,4a,5,6,7,8-hexahydro-5-hydroxy-1,4a-dimethylnaphthalen-2(3H)-one], the pIC50 is greater than 5.00 at VHR; 4.30 to 5.00 on PTP1B; 4.30 to 5.00 on Cdc25A; 4.30 to 5.00 on PP1; greater than 5.00 on MPTPA; greater than 5.00 on 11beta-HSD1. Moreover, the pIC50 at 11beta-HSD2 and at AChE was greater than 5.00 in each case.
Take `CC1=C2CC(c3ccccc3)CC(O)C2CCC1=O` (stereo not shown) [Compound 167, 5-Hydroxy-1-methyl-7-phenyl-4,4a,5,6,7,8,-hexahydro-3H-naphthalen-2-one]: at AChE (read-out: IC50 Target AChE), the pIC50 was greater than 5.00.
Take `O=C1C(=Cc2ccco2)CCC2CC=CCC12` (stereo not shown) [Compound 403, 2-Furan-2-ylmethylene-3,4,4a,5,8,8a-hexahydro-2H-naphthalen-1-one]: the pIC50 at 11beta-HSD1 and at 11beta-HSD2 was greater than 5.00 throughout.
